Measured values reported in patent publication US3932650A, “Trans-octahydropyridoindolobenzazepines as central nervous system depressants” (E. I. Du Pont de Nemours & Company, priority 1973, dated 1976).
Like-named read-outs stand apart in the source and are kept apart here.

Columns and labels:
[1] = system: locomotor activity; assay: Decreased Locomotor Activity (L.M.A.), mouse; assay type: in vivo; settings: mouse, po; minimal effective dose; read-out: L.M.A. MED
Method: (§1) Decreased Locomotor Activity (L.M.A.)
(§2) This reaction sign is measured subjectively by observing how an animal behaves when it is removed from an observation cage and placed on a table top. […] The degree of stimulation by the observer needed to produce active locomotion is rated on an arbitrary scale. This ranges from a score of -1 where only a slight touch of the animal's body is required to a -4 where the animal is unresponsive or minimally responsive to the application of a pain stimulus (pressure at the base of the tail). The minimal effective dose (MED) is the lowest oral dose producting an obvious decrease of locomotor activity (with a score of at least -1). Groups of 3 mice are given decreasing oral doses at 0.5 log intervals (300, 100, 30. . .etc.) until no behavioral effects are evident. Decrease of locomotor activity is indicative of general central nervous system depressant activity.

[2] = system: locomotor activity; assay: Decreased Locomotor Activity (L.M.A.), rat; assay type: in vivo; settings: po; minimal effective dose; read-out: L.M.A. MED
Method: as §1, §2

[3] = system: eyelid closure (ptosis); assay: Ptosis, mouse; assay type: in vivo; settings: mouse, po; passive ptosis; read-out: Ptosis MED
[4] = system: eyelid closure (ptosis); assay: Ptosis, rat; assay type: in vivo; settings: rat, po; passive ptosis; read-out: Ptosis MED
Description: Degree of eyelid closure is used as a measure of central nervous system depression. An animal is removed from its observation cage and allowed to remain outside the cage for 30 seconds. At the end of this time a rating of degree of eyelid closure is made on an arbitrary scale.

[5] = system: catalepsy; assay: Catalepsy, mouse; assay type: in vivo; settings: mouse, po; read-out: Catalepsy MED
Description: (§3) The ability of an animal to remain in an abnormal position is used as another indication of central nervous system depressant activity. A test animal is removed from its observation cage and positioned so that its hind legs are on the table top and its front legs rest on the side of the observation cage. If an animal maintains this position for at least 10 seconds, it is considered to be showing cataleptic behavior.

[6] = system: catalepsy; assay: Catalepsy, rat; assay type: in vivo; settings: rat, po; read-out: Catalepsy MED
Description: as §3

[7] = system: TBZ-induced ptosis; assay: Tetrabenazine Antagonism (T.B.Z.A.), mouse; assay type: in vivo; settings: 1 h; mouse, po; TBZ 40 mg/kg s.c. one hour after compound; read-out: T.B.Z.A. ED50
Method: (§4) Tetrabenazine Antagonism (T.B.Z.A.)
(§5) The tetrabenazine (TBZ) antagonism test is used to test for potential antidepressant-like activity in rodents. One hour after oral administration of a test compound, a 40 mg/kg dose of TBZ is given subcutaneously. Thirty minutes after TBZ administration, the mice are placed in the center of a circle; the diameter of the circle is twice the body length of the mouse or rat. After 30 seconds, a reading is made of the degree of ptosis and whether the animal has moved out of the circle. Animals that have received only TBZ will show marked ptosis and immobility. Tricyclic antidepressants of the imipramine type will antagonize the ptosis but not the immobility. Antidepressants of the amphetamine or monoamine oxidase inhibitory type will antagonize both the ptosis and immobility induced by TBZ. The ED50 is the dose producing antagonism of TBZ-induced ptosis, but not of TBZ-induced immobility, in 50% of the animals.

[8] = system: TBZ-induced ptosis; assay: Tetrabenazine Antagonism (T.B.Z.A.), rat; assay type: in vivo; settings: 1 h; rat, po; TBZ 40 mg/kg s.c. one hour after compound; read-out: T.B.Z.A. ED50
Method: as §4, §5

[9] = system: fear / feeding in approach-avoidance conflict; assay: Rat Conflict (Approach-Avoidance) Test; assay type: in vivo; settings: rat, po; after 1 or 2 hours; read-out: Conflict MED
Method: Rat Conflict (Approach-Avoidance) Test (Conflict)
Results given in: mg/kg po/rat
Food deprived rats are trained to pass from one compartment to an adjacent one to obtain food. The training consists of 3 exposures to the test situation on day one of the experiment. The rats are given limited (1-2 hr) free access to food in their home cages on day one and are then food deprived for at least 18 hours. On day two of the experiment, the rats are given a control exposure to the test situation followed by a second exposure after one-half to 1 hour in which they are shocked after crossing and eating. Groups of 6-8 rats are then dosed orally with solvent or test compound and then re-exposed to the test situation after 1 or 2 hours.
Compounds showing minor tranquilizer (anxiolytic) activity in man such as diazepam and meprobamate produce an apparent decreased fear in the test animals so that they cross to obtain food despite having received a shock earlier. This effect is dose-related (and the MED is the minimum dose at which this effect is obtained); rats dosed with solvent only consistently show a high level of fear as evidenced by decreased mobility and absence of feeding when placed in the test situation after receiving a shock.

[10] = system: conditioned avoidance response; assay: Conditioned Avoidance Response (C.A.R.), mouse; assay type: in vivo; settings: mouse, po; block of C.A.R. in 50% of animals; 1, 2, and 4 hours; read-out: C.A.R. ED50
Method: (§6) Mouse and Rat Conditioned Avoidance Response (C.A.R.):
(§7) Mice and rats are trained to jump out of a pit onto a ledge to avoid shock when presented with a light and sound conditioned stimulus. The animals are tested 1, 2, and 4 hours after administration of the test compound. Three to four dose levels and groups of 4-8 animals/dose are used. The ED50 is the dose producing a block of the C.A.R. in 50% of the animals. Blocking of the C.A.R. at non-toxic doses appears to correlate with major tranquilizer activity in man.

[11] = system: conditioned avoidance response; assay: Conditioned Avoidance Response (C.A.R.), rat; assay type: in vivo; settings: rat, po; block of C.A.R. in 50% of animals; 1, 2, and 4 hours; read-out: C.A.R. ED50
Method: as §6, §7

[12] = system: conditioned avoidance response; assay: Dog Conditioned Avoidance Response (C.A.R.); assay type: in vivo; settings: Canis lupus familiaris; dog, po; 5 or more incorrect responses in 50% of animals; 1, 2, and 4 hours; read-out: C.A.R. ED50
Method: Dog Conditioned Avoidance Response (C.A.R.):
Results given in: mg/kg po/dog
Dogs are trained to raise a forelimb when presented with a conditioned stimulus (light) in order to avoid an electric shock. Blocks of 10 trials are given to groups of 4 dogs during a pretreatment period and at 1, 2, and 4 hours after oral administration of the test compound. The ED50 values are calculated as the dose causing 50% of the animals to show 5 or more incorrect responses. Blocking of the C.A.R. at non-toxic doses appears to correlate with major tranquilizer activity in man.

[13] = system: taming; assay: Rhesus Monkey Taming Effects; assay type: in vivo; settings: Macaca mulatta; rhesus monkey, po; read-out: Taming MED
Method: Rhesus Monkey Taming Effects (Taming):
Results given in: mg/kg po/monkey
Compounds are administered orally to groups of 6 rhesus monkeys. The behavior of the animals is then evaluated by observational means. Taming effects are determined by the ability of the observer to approach and touch the monkey. Compounds with major tranquilizer activity in man can produce a state of passive tameness in the rhesus monkey wherein it can be touched without provoking any of the threatening or aggressive behavior seen in the normal animal. The MED is the minimal oral dose at which some taming effect can be observed.

[14] = system: phenyl-p-benzoquinone-induced writhing; assay: Phenylquinone Writhing (P.Q.W.); assay type: in vivo, mouse; settings: 0.5 h; mouse, po; phenyl-p-benzoquinone 2.5 mg/kg i.p. 30 minutes after compound; read-out: P.Q.W. ED50
[15] = system: locomotor activity; assay: LMA, comparison with chlorpromazine; assay type: in vivo; settings: read-out: LMA (*ED50?)
[16] = system: catalepsy; assay: Catalepsy, comparison with chlorpromazine; assay type: in vivo; settings: read-out: Catalepsy (*ED50?)
[17] = system: eyelid closure (ptosis); assay: Ptosis, comparison with chlorpromazine; assay type: in vivo; settings: read-out: Ptosis (*ED50?)

Compound	minimal effective dose [1] [mg/kg]	minimal effective dose [2] [mg/kg]	minimal effective dose [3] [mg/kg]	minimal effective dose [4] [mg/kg]	minimal effective dose [5] [mg/kg]	minimal effective dose [6] [mg/kg]	ED50 [7] [mg/kg]	ED50 [8] [mg/kg]	minimal effective dose [9] [mg/kg]	ED50 [10] [mg/kg]	ED50 [11] [mg/kg]	ED50 [12] [mg/kg]	minimal effective dose [13] [mg/kg]	ED50 [14] [mg/kg]	ED50 ([15]; species not given) [mg/kg]	ED50 ([16]; species not given) [mg/kg]	ED50 ([17]; species not given) [mg/kg]	ED50 [15] [mg/kg]	ED50 [16] [mg/kg]	ED50 [17] [mg/kg]
c1ccc2c(c1)CCc1cccc3c1N2[C@@H]1CCN(CC2CC2)C[C@@H]31 (relative stereo) [Example 2, trans-3-(Cyclopropylmethyl)-1,2,3,4,4a,8,9,14a-octahydropyrido[4',3':2,3]indolo[1,7-ab][1]benzazepine]	3	1	10	3	3	3	> 100	> 100	> 40	0.7	0.7	3	1	2.3						
CC(C)CN1CC[C@@H]2[C@@H](C1)c1cccc3c1N2c1ccccc1CC3 (relative stereo) [Example 5, trans-1,2,3,4,4a,8,9,14a-Octahydro-3-isobutylpyrido[4',3':2,3]indolo[1,7-ab][1]benzazepine]	2	4	8	5	2	6								1.75	4	6	5			
CN(C)CCCN1c2ccccc2Sc2ccc(Cl)cc21 [Chlorpromazine]																		5	6	6
